Where two headings read alike, the source gives them in different places.
Columns and labels:
[1] = biological target: T1, SGLT-2 in the kidney (Homo sapiens, UniProt P31639); details: compared with T-1095; cited from earlier work
T1 sequence (P31639 1-672): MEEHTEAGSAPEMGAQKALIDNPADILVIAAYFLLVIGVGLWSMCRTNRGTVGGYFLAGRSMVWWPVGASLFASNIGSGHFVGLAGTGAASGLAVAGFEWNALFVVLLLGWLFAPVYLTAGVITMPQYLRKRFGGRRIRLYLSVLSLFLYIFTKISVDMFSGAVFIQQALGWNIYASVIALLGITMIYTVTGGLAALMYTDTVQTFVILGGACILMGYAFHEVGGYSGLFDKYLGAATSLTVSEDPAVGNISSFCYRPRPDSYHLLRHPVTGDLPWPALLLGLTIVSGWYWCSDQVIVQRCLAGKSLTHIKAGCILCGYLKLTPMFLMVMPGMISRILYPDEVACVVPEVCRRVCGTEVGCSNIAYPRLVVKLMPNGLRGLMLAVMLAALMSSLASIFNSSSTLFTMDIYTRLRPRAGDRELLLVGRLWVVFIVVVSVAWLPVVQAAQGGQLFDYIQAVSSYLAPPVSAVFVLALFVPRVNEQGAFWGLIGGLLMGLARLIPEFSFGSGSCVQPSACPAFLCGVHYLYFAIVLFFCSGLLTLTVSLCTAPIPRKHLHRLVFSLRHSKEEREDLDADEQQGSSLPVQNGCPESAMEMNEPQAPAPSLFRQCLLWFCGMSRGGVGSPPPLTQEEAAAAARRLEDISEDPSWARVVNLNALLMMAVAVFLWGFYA

[2] = test system: SGLT in the kidney; details: cited from earlier work
[3] = biological target: T2, SGLT1 (Homo sapiens, UniProt P13866); details: Kidney (S1, S3), cited from earlier work; for Km: for D-glucose
T2 sequence (P13866 1-664): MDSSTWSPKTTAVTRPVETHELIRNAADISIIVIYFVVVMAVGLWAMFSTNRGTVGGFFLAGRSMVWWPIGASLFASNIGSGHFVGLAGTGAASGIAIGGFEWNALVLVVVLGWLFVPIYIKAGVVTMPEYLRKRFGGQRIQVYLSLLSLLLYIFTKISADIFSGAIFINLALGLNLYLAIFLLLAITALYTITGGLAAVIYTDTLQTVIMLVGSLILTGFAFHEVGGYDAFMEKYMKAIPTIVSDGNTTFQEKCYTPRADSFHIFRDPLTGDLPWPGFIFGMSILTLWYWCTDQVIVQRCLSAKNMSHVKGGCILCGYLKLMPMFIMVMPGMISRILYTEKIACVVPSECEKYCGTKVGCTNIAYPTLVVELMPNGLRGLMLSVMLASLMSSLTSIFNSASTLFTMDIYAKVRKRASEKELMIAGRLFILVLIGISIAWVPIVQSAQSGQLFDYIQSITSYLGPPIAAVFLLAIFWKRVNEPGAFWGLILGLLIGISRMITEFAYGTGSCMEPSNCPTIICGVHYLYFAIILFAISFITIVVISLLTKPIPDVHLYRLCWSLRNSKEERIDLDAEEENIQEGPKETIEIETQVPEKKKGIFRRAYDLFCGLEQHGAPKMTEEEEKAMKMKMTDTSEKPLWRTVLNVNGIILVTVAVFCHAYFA

[4] = test system: SGLT2 (SAAT1); details: Kidney (S3), cited from earlier work; for Km: for D-glucose
[5] = test system: diabetic rodent models (STZ-induced diabetic rat, yellow KK mice, db/db mice, Zucker Diabetic Fatty rats and GK rats); details: cited from earlier work
[6] = test system: db/db mice; experiment: Fed plasma triglycerides after oral dosing of MX-6054 +/- T-1095 (Example 5); type: in vivo; details: ± SEM
Description: (§1) To examine the effect of T-1095 in combination with a RXR agonist, male db/db mice (7 weeks of age/Jackson Labs, ME) were treated daily for 11 days with vehicle (0.5% methylcellulose), an RXR agonist such as MX-6054 (0.1 mg/kg-10 mg/kg), T-1095 (100 mg/kg), or MX-6054 plus T-1095. Mice (n=8 animals/group) received the test compounds or vehicle by oral gavage in a volume of 10 ml/kg of body weight. Body weight was recorded on day 1, prior to dosing, and days 4, 8 and 11. Two hours after the final dose (day 11), mice were weighed and anesthetized with CO2/O2 (70:30). Mice were then bled by retro-orbital sinus puncture into 2 mL heparinized polypropylene tubes on ice. Livers were excised, weighed and frozen.
(§2) Plasma samples were then assayed for glucose and triglycerides using Trinder reagent (Sigma Diagnostics) and GPO-Trinder (Sigma Diagnostics).

[7] = Body weight after oral dosing of MX-6054 +/- T-1095 (Example 5); type: in vivo; details: oral dosing (title: 35 day), db/db mice
Description: To examine the effect of T-1095 in combination with a RXR agonist, male db/db mice (7 weeks of age/Jackson Labs, […]), an RXR agonist such as MX-6054 (0.1 mg/kg-10 mg/kg), T-1095 (100 mg/kg), or MX-6054 plus T-1095. Mice (n=8 animals/group) received the test compounds or vehicle by oral gavage in a volume of 10 ml/kg of body weight. […] […] Mice were then bled by retro-orbital sinus puncture into 2 mL heparinized polypropylene tubes on ice. Livers were excised, weighed and frozen.

[8] = Liver weight after oral dosing of MX-6054 +/- T-1095 (Example 5); type: in vivo; details: db/db mice; for liver weight (title: Effects on body and liver weights): oral dosing (title: 35 day), in g (unit assumed)
[9] = test system: db/db mice; experiment: Fed plasma glucose after oral dosing of MX-6054 +/- T-1095 (Example 5); type: in vivo; details: ± SEM
Description: as §1, §2

[10] = test system: renal tubular glucose reabsorption; details: subcutaneous daily administration; cited from earlier work
[11] = test system: Na^+-glucose co-transporters located in chorionic membrane of the intestine and the kidney; details: cited from earlier work
[12] = 100 mpk T-1095, 11 day oral dosing
[13] = 0.1 mpk MX-6054, 11 day oral dosing
[14] = 0.3 mpk MX-6054, 11 day oral dosing
[15] = 1 mpk MX-6054, 11 day oral dosing
[16] = 3 mpk MX-6054, 11 day oral dosing
[17] = 10 mpk MX-6054, 11 day oral dosing

Compound: Cc1cc(O)c(C(=O)CCc2ccc3occc3c2)c(OC2OC(CO)C(O)C(O)C2O)c1 (centres unmarked) [T-1095A]
- substrate for the inhibition of SGLT-2 in the kidney [1]: better substrate
- inhibition of SGLT in the kidney [2]: selective and potent inhibitor

Compound: O=C[C@H](O)[C@@H](O)[C@H](O)[C@H](O)CO [D-glucose]
- Km ([3]; read-out: Km In vivo): 300 µM
- Km ([3]; read-out: Km in vitro): 390 µM
- TmG in vitro (Maximal transport rate) [3]: 7.9 pmol/min/mm
- Km ([4]; read-out: Km In vivo): 6000 µM
- Km ([4]; read-out: Km in vitro): 1640 µM
- TmG in vitro (Maximal transport rate) [4]: 83 pmol/min/mm

Compound: COC(=O)OCC1OC(Oc2cc(C)cc(O)c2C(=O)CCc2ccc3occc3c2)C(O)C(O)C1O (centres unmarked) [T-1095]
- adding weight, infection in the urinary tracts, electrolyte imbalance in plasma, changes in food intake, acute hypoglycemic shock, pathological changes in the kidney ([5]; during treatment with T-1095): no observed sign
- oral glucose tolerance test and hyperinsulinemic euglycemic clamp studies ([5]; in vivo, po): improvement of glucose tolerance and the reduction of insulin resistance
- elevated blood glucose levels ([5]; oral administration, rodent models of IDDM and NIDDM): suppress elevated blood glucose levels
- fed and fasting blood glucose levels and HbA1c ([5]; treatment for 3 weeks to 6 months, diabetic rodent models): reduced
- hyperinsulinemia, hypertriglyceridemia, and the development of microalbuminuria ([5]; yellow KK mice and other diabetic mice models): decrease
- Triglycerides [6, 12]: 196 ± 11 mg/dL
- body weight (title: Effects on body and liver weights) ([7]; 100 mpk T-1095): 0.7 ± 0.3
- liver weight (title: Effects on body and liver weights) ([8]; 100 mpk T-1095): 1.64 ± 0.07
- MX-6054-induced increase in liver weight ([8]; co-administration of T-1095 with MX-6054): prevented
- Glucose [9, 12]: 201 ± 9 mg/dL

Compound: O=C(CCc1ccc(O)cc1)c1c(O)cc(O)cc1O[C@@H]1O[C@H](CO)[C@@H](O)[C@H](O)[C@H]1O [phlorizin]
- glucose level in a plasma [10]: controlled at a normal level for a long time
- Na^+-glucose co-transporter activity [11]: inhibits

Compound: Cc1cc2c(cc1-c1cc(/C=C3\SC(=O)NC3=O)ccc1OC(F)(F)F)C(C)(C)CCC2(C)C [MX-6054, 2,4-thiazolidinedione, 5-[[3-(5,6,7,8-tetrahydro-3,5,5,8,8-pentamethyl-2-naphthalenyl)-4-(trifluoromethoxy)phenyl]methylene]-, (5Z)-]
- Triglycerides [6, 13]: 260 ± 24 mg/dL
- Triglycerides [6, 14]: 262 ± 25 mg/dL
- Triglycerides [6, 15]: 259 ± 28 mg/dL
- Triglycerides [6, 16]: 206 ± 24 mg/dL
- Triglycerides [6, 17]: 189 ± 11 mg/dL
- body weight (title: Effects on body and liver weights) ([7]; 0.1 mpk MX-6054): −0.7 ± 0.7
- body weight (title: Effects on body and liver weights) ([7]; 0.3 mpk MX-6054): 0.2 ± 0.4
- body weight (title: Effects on body and liver weights) ([7]; 1 mpk MX-6054): 0.6 ± 0.6
- body weight (title: Effects on body and liver weights) ([7]; 3 mpk MX-6054): −0.8 ± 1.3
- body weight (title: Effects on body and liver weights) ([7]; 10 mpk MX-6054): 2.5 ± 1.1
- liver weight (title: Effects on body and liver weights) ([8]; 0.1 mpk MX-6054): 1.76 ± 0.11
- liver weight (title: Effects on body and liver weights) ([8]; 0.3 mpk MX-6054): 1.93 ± 0.09
- liver weight (title: Effects on body and liver weights) ([8]; 1 mpk MX-6054): 1.98 ± 0.09
- liver weight (title: Effects on body and liver weights) ([8]; 3 mpk MX-6054): 1.89 ± 0.09
- liver weight (title: Effects on body and liver weights) ([8]; 10 mpk MX-6054): 2.38 ± 0.16
- liver weight, effect of treatment in words ([8]; treatment with MX-6054): significant increase
- Glucose [9, 13]: 357 ± 46 mg/dL
- Glucose [9, 14]: 342 ± 41 mg/dL
- Glucose [9, 15]: 406 ± 57 mg/dL
- Glucose [9, 16]: 255 ± 42 mg/dL
- Glucose [9, 17]: 224 ± 13 mg/dL

Reference: US8183213B2, “Combination therapy comprising glucose reabsorption inhibitors and retinoid-X receptor modulators” (Ortho McNeil Pharmaceutical, Inc., priority 2001, dated 2012)
